The values that follow are results of earlier work, collected in patent US20220288158A1, “NOVEL ENTERIC COMBINATION THERAPY” (priority 2009, published 2022).

For the data set, the system named is patients with constipation. Conditions: for effect on bowel activity when used in constipation: literature, Brandt L J et al 2009.

For the molecule `CO[C@H]1/C=C/O[C@@]2(C)Oc3c(C)c(O)c4c(O)c(c5c(nc6cc(C)ccn65)c4c3C2=O)NC(=O)/C(C)=C\C=C\[C@H](C)[C@H](O)[C@@H](C)[C@@H](O)[C@@H](C)[C@H](OC(C)=O)[C@@H]1C` [rifaximin], the “effect on bowel activity when used in constipation” value (from here on “effect on bowel activity when used”) is “variable and not reproducible”.

In the case of `CN[C@H](CC(C)C)C(=O)N[C@H]1C(=O)N[C@@H](CC(N)=O)C(=O)N[C@H]2C(=O)N[C@H]3C(=O)N[C@H](C(=O)N[C@H](C(=O)O)c4cc(O)cc(O)c4-c4cc3ccc4O)[C@H](O)c3ccc(c(Cl)c3)Oc3cc2cc(c3O[C@@H]2O[C@H](CO)[C@@H](O)[C@H](O)[C@H]2O[C@H]2C[C@](C)(N)[C@H](O)[C@H](C)O2)Oc2ccc(cc2Cl)[C@H]1O` [vancomycin], the “use of vancomycin alone in constipation” value (not all patients respond, and respond but partially) is given as “inefficient”.

With neomycin, the “effect on bowel activity when used” value was “variable and not reproducible”.

Take `Cc1ncc([N+](=O)[O-])n1CCO` [metronidazole]: the “effect on bowel activity when used” value is “variable and not reproducible”.

On to `CC[C@H]1OC(=O)[C@H](C)[C@@H](O[C@H]2C[C@@](C)(OC)[C@@H](O)[C@H](C)O2)[C@H](C)[C@@H](O[C@@H]2O[C@H](C)C[C@H](N(C)C)[C@H]2O)[C@](C)(OC)C[C@@H](C)C(=O)[C@H](C)[C@@H](O)[C@]1(C)O` [clarithromycin], for which the “effect on bowel activity when used” value is “variable and not reproducible”.
